Usually IC50 stands for the concentration needed to halve the response being measured. A high value points to weaker potency. For orientation: melting point means the temperature of the solid-liquid transition.

For one series, the target named is T1, cyclooxygenase-2 (Mus musculus, UniProt Q05769).
T1 sequence (Q05769 18-604): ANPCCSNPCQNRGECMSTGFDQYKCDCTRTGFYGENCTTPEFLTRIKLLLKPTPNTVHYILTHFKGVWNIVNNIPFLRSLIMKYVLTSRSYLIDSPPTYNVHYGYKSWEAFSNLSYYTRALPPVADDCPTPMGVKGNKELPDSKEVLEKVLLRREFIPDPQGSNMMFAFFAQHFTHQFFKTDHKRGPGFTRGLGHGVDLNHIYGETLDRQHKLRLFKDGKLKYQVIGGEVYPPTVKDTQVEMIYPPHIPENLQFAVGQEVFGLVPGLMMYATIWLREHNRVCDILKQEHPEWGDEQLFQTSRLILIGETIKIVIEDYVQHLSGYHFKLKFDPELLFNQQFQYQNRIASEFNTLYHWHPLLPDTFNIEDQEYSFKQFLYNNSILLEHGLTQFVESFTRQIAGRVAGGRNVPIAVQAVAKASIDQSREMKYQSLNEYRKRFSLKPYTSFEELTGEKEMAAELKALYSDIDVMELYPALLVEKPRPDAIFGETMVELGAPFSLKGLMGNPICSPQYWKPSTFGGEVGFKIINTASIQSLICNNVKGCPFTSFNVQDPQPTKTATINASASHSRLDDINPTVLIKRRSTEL
Nature of the series: Cell-based assay for cyclooxygenase-2 inhibition (PGE2 ELISA, LPS-treated RAW264.7 macrophages). Conditions: lipopolysaccharide-treated murine RAW264.7 macrophages.

Experimental for cyclooxygenase-2: RAW 264.7 cells are a murine macrophage cell line that can be induced to express cyclooxygenase-2 by exposure to bacterial endotoxin/lipopolysaccharide (LPS). For this assay, RAW964.7 cells were plated at 90% confluence in 12-well cell culture plates. After attachment, cells were switched to 1 mL of endotoxin-free Dulbecco's Modified Eagle's Medium with high glucose and 0.5% calf serum overnight. Thirty minutes prior to induction of cyclooxygenase-2 expression, varying concentrations of the test compound (ranging from 20 nM to 0.3 nM) were added. NS-398 (a known cyclooxygenase-2 inhibitor) was used at 10 μM, as a control. Inhibitors or vehicle were added to the cultures by removing the existing culture medium and adding fresh medium containing inhibitor or vehicle. Cells were treated with LPS (final concentration, 10 ng per mL) to induce cyclooxygenase-2 expression. After eight hours, the media were collected from the cultures and frozen on dry ice. Cells were harvested and lysed. Protein determinations were performed to normalize PGE2 values to total protein in each well. PGE2 ELISA assays were performed with a commercial kit (Amersham).
The assay was carried out using lipopolysaccharide-treated murine RAW264.7 macrophages as described previously.

Turning to `Cc1onc(-c2ccccc2)c1-c1ccc(S(N)(=O)=O)c(F)c1` [compound 4, 2-Fluoro-4-(5-methyl-3-phenylisoxazol-4-yl)benzenesulfonamide], the melting point is 192 to 195 °C (dec.). The IC50 against cyclooxygenase-2 lay in the range of 1.25 to 2.5 nM.
